Tests used:
H292 and H3118 cells [1] = test: Cell growth, cell count by trypan blue exclusion; type: cell-based
Protocol: (§1) FIG. 2 illustrates inhibition of PDE4B by pharmacological inhibitor rolipram plus forskolin prevents cell growth, causes cell cycle arrest and induces apoptosis in fusion positive MEC cells. Rolipram (R), forskolin (FK), Rolipram plus forskolin (R+FK) or DMSO. Columns: mean, bars: SD (n>3), *p<0.05, **p<0.01, ***p<0.001, compared to HSY cell growth. B. 1×10^5 cells were treated with 50 μM R plus 20 μM FK or DMSO for 24 hours. C. 1×10^5 cells were treated with 50 μM rolipram plus 20 μM forskolin with or DMSO for 48 hours. Apoptosis assay was performed by PI and Annexin-V staining and analyzed by flow cytometry. Columns: mean, bars: SD (n=3). *p<0.05, compared with DMSO treated cells.
FIG. 6 illustrates PI3-kinase signaling contributes to MEC cell growth. A. Effects of PI3-kinase inhibitor LY-294002 or Compound A on MEC cell growth. […] The same blot was stripped and probed with anti-AKT or anti-V.-actin antibody. Image was cropped and auto-leveled by Photoshop. A representative of three independent experiments. (Right) MEC cell growth was measured by MTS assay on day 5 of LY-294002 or Compound A treatment. Points: mean, bars: SD (n=3). B. Effects of knock-down of PI3-kinase α or β on MEC cell growth. […] H3118 cell lysates were prepared on day 5 post-transduction. Image was cropped and auto-leveled by Photoshop. (Lower) Effects of knock-down of PI3-kinase α or β on MEC cell growth. 1×10^5 cells were transduced twice with lenti-viruses harboring shRNAs targeting PI3-K α, β or scramble control. Cell numbers were counted by trypan blue exclusion on day 5 posttransduction. Cell growth of scramble control virus infected cells was set to 100%, Columns: mean, bars: SD (n=3). **p<0.01, ***p<0.001 compared to control cells. C. Effects of Compound A in combination of rolipram plus forskolin on of MEC cell growth. 1×10^5 cells were treated with the combination of inhibitors listed. Cell numbers were counted by trypan blue exclusion on day 5, Columns: mean, bars: SD (n=3).
(§2) The Methods were described previously (Chen et al. Genes Cancer, 1:822-835 (2010)). Cell growth: 1-2×10^5 cells were infected with lenti-virus harboring specific shRNAs. On day 5 post infection, cells were counted by trypan blue exclusion. MTS proliferation assay (Promega, Madison, Wis.): 1-2×10^3 cells were treated with LY-294002, Compound A or DMSO in the concentration as indicated in FIG. 6A. MTS activities were measured on day 5. Cell cycle analysis: 1×10^5 cells were treated with inhibitors or infected with viruses. DNA amount was measured by flow cytometry analysis (BD FACScans). Apoptosis assay: 1×10^5 cells were treated with inhibitors or infected with virus. Cell viability was measured using the Annexin-V-FLUOS Staining Kit (Roche Diagnostics, Indianapolis, Ind.) by flow cytometry analysis (BD FACScans).

H292 and H3118 cells [2] = test: MTS proliferation assay; type: cell-based; details: Homo sapiens, NCI-H292, 120 h, MTS assay on day 5 of treatment, read-out: IC50, cell growth
Protocol: FIG. 6 illustrates PI3-kinase signaling contributes to MEC cell growth. A. Effects of PI3-kinase inhibitor LY-294002 or Compound A on MEC cell growth. […] The same blot was stripped and probed with anti-AKT or anti-V.-actin antibody. Image was cropped and auto-leveled by Photoshop. A representative of three independent experiments. (Right) MEC cell growth was measured by MTS assay on day 5 of LY-294002 or Compound A treatment. Points: mean, bars: SD (n=3). B. Effects of knock-down of PI3-kinase α or β on MEC cell growth. […] cell lysates were prepared on day 5 post-transduction. Image was cropped and auto-leveled by Photoshop. […] Cell numbers were counted by trypan blue exclusion on day 5 posttransduction. […] SD (n=3). **p<0.01, ***p<0.001 compared to control cells. C. […] Cell numbers were counted by trypan blue exclusion on day 5, Columns: mean, bars: SD (n=3). The Methods were described previously (Chen et al. […] On day 5 post infection, cells were counted by trypan blue exclusion. MTS proliferation assay (Promega, Madison, Wis.): 1-2×10^3 cells were treated with LY-294002, Compound A or DMSO in the concentration as indicated in FIG. 6A. MTS activities were measured on day 5. […] DNA amount was measured by flow cytometry analysis (BD FACScans). […] Cell viability was measured using the Annexin-V-FLUOS Staining Kit (Roche Diagnostics, Indianapolis, Ind.) by flow cytometry analysis (BD FACScans).

HSY cells [3] = test: Cell growth, cell count by trypan blue exclusion; type: cell-based
Protocol: as §1
(§3) FIG. 3 illustrates knock-down of PDE4B inhibits fusion positive MEC cell growth, causes cell cycle arrest and induces apoptosis. A. H3118 cell lysate was prepared on day 5 post-transduction and subjected to western blot analysis. Image was cropped and auto-leveled by Photoshop. A representative of three independent experiments. B. 1×10^5 MEC cells were infected twice by shRNA No. 1 and No. 2 and cell number was count on day 5 post-transduction by trypan blue exclusion. Columns: mean, bars: SD (n>3). *p<0.05, **p<0.01, compared with scramble control virus infected cell growth. C. 1×10^5 cells were infected twice by shRNA No. 2. Cell cycle was determined by PI staining followed by FACS analysis on day 5 post-transduction, n=3. D. 1×10^5 cells were infected twice by shRNA No. 2. Apoptosis assay was performed by PI and Annexin-V staining and analyzed by flow cytometry on day 5 post-transduction, Columns: mean, bars: SD (n=3). *p<0.05, compared with control cells.
as §2

H292 cells [4] = test: Cell growth, cell count by trypan blue exclusion; type: cell-based; details: PDE4B knock-down, day 5 post-transduction, compared to scramble control
Protocol: as §3, §2

H3118 cells [5] = test: Cell growth, cell count by trypan blue exclusion; type: cell-based; details: PDE4B knock-down, day 5 post-transduction, compared to scramble control
Protocol: as §3, §2

H3118 cells [6] = test: In vivo murine xenograft model; parameters: species or system SCID hairless (SHO) mice
Excerpt: FIG. 4 illustrates knock-down of PDE4B inhibited MEC cell growth in vivo. A. Tumor volume in SCID hairless mice. Points: mean of 5 tumors, bars: SD (n=5). ***p<0.001, compared to control tumor. B. Representative picture of the tumors dissected from the mice after sacrifice on day 30. Five pair (shPDE4B vs. scramble control) of tumors was shown (n=5). C. Tumor weight from SCID hairless mice. Tumors were weighted on day 30 at sacrifice. Columns: mean, bars: SD (n=5). ***p<0.001, compared to control tumor weight. D. RT-qPCR analysis of PDE4B expression from the tumor biopsies. Columns: mean, bars: SD (n=3). ***p<0.001, compared to control tumor.
Mice were maintained and treated in accordance with institutional guidelines of Dana Farber Cancer Institute Animal Resource Facilities. H3118 cells were infected twice with shPDE4B-2 or scramble control virus. On day three post-transduction, 5×10^6 shPDE4B cells were injected subcutaneously (s.c.) into one flank of a SCID hairless (SHO) mice (Charles River Laboratories International, Inc., Wilmington, Mass.) and 5×10^6 control cells were injected into the opposite flank (Dubrovska et al., Proc Natl Acad Sci USA, 2009, 106: 268-273; Serra et al. Cancer Res, 2008, 68: 8022-8030). A total of five mice were used. The tumor volume was measured every two days starting from day 10, volume=(length×width2)×(π/6). Mice were sacrificed on day 30. The tumors were excised and the weight was measured.

H292 cells [7] = test: Cell cycle analysis by flow cytometry; type: cell-based; details: PDE4B knock-down, day 5 post-transduction; scramble control 50%
Protocol: as §1, §3
(§4) The Methods were described previously (Chen et al. Genes Cancer, 1:822-835 (2010)). […] On day 5 post infection, cells were counted by trypan blue exclusion. […] MTS activities were measured on day 5. […] DNA amount was measured by flow cytometry analysis (BD FACScans). […] Cell viability was measured using the Annexin-V-FLUOS Staining Kit (Roche Diagnostics, Indianapolis, Ind.) by flow cytometry analysis (BD FACScans).

H3118 cells [8] = test: Cell cycle analysis by flow cytometry; type: cell-based; details: PDE4B knock-down, day 5 post-transduction; scramble control 57%
Protocol: as §1, §3, §4

HSY cells [9] = test: Cell cycle analysis by flow cytometry; type: cell-based; details: PDE4B knock-down
Protocol: as §1, §3, §4

H292 and H3118 cells [10] = test: Apoptosis assay, PI and Annexin-V staining; type: cell-based; details: PDE4B knock-down, day 5 post-transduction
Protocol: as §1
(§5) FIG. 3 illustrates knock-down of PDE4B inhibits fusion positive MEC cell growth, causes cell cycle arrest and induces apoptosis. […] Cell cycle was determined by PI staining followed by FACS analysis on day 5 post-transduction, n=3. […] Apoptosis assay was performed by PI and Annexin-V staining and analyzed by flow cytometry on day 5 post-transduction, Columns: mean, bars: SD (n=3). *p<0.05, compared with control cells.
(§6) The Methods were described previously (Chen et al. Genes Cancer, 1:822-835 (2010)). […] On day 5 post infection, cells were counted by trypan blue exclusion. […] MTS activities were measured on day 5. […] DNA amount was measured by flow cytometry analysis (BD FACScans). […]

HSY cells [11] = test: Apoptosis assay, PI and Annexin-V staining; type: cell-based; details: PDE4B knock-down, day 5 post-transduction
Protocol: as §1, §5, §6

PDE4B = PDE4B expression in cells (qPCR); type: cell-based; details: vs shLUC
Protocol: FIG. 1 illustrates identification of CRTC1-MAML2 Target genes. […] RT-qPCR experiments were performed in triplicates. Columns: mean, bars: SD (n=3). *p<0.05, compared with expression from shLUC infected cells (Student t test). B Inhibition of CRTC1-MAML2 inhibited H3118 and H292 cell growth. Columns: mean, bars: SD (n=3). *p<0.05, **p<0.01, ***p<0.001, compared with shLUC. […] Columns: mean, bars: SD (n=3). […] Image was cropped and auto-leveled by Photoshop. A representative of three independent experiments.
Total RNA was isolated by the Trizol method (Invitrogen). qPCR was performed using ABI PRISM 7500 sequence detector (Applied Biosystems, Foster City, Calif.) by SYBR method (Applied Biosystems). The SYBR method uses SYBR Green I dye, which is a highly specific, double-stranded DNA binding dye, to detect PCR product as it accumulates during PCR cycles. All samples were amplified in triplicates. The relative change of transcript amount was normalized with the GAPDH mRNA expression levels (20).

H3118 cells [12] = test: Microarray gene expression after CRTC1-MAML2 knock-down; type: cell-based
Protocol: H3118 or HSY cells were transduced twice with retro-virus harboring shLUC or sh#D. GFP-positive cells were sorted 48 hours post-transduction. Total RNA was extracted using Trizol reagents (Invitrogen) and purified by RNAeasy Mini Column (QIAGEN). Hybridization with Affymetrix U133A plus—2 microarray chips was performed and analyzed at Dana-Farber Cancer Institute Microarray Core. The d-Chip analysis software was used for the analysis; Li, C. and Wong, W. H. Proc. Natl. Acad. Sci. USA […]. Genes with three fold expression changes in H3118 cells were considered significant (n=3, p<=0.05).

[13] = retroviral shRNA, fusion-positive H292 and H3118 cells, compared to shLUC
[14] = retroviral shRNA, fusion-negative HSY cells, compared to shLUC

Cn1c(=O)n(-c2ccc(C(C)(C)C#N)cc2)c2c3cc(-c4cnc5ccccc5c4)ccc3ncc21 [Compound A, 2-methyl-2-[4-(3-methyl-2-oxo-8-quinolin-3-yl-2,3-dihydroimidazo[4,5-c]quinolin-1-yl)-phenyl]propionitrile]
effect on MEC cell growth when combined with rolipram and forskolin (H292 and H3118 cells [1]; MEC cells, cell count by trypan blue exclusion on day 5): additive effect | IC50 (H292 and H3118 cells [2]): 6 to 20 nM

O=c1cc(N2CCOCC2)oc2c(-c3ccccc3)cccc12 [LY-294002]
IC50 (H292 and H3118 cells [2]): 4000 to 10000 nM

COc1ccc(C2CNC(=O)C2)cc1OC1CCCC1 (stereo not shown) [rolipram, 4-(3-cyclopentyloxy-4-methoxyphenyl)pyrrolidin-2-one]
cell growth (in words) (H292 and H3118 cells [1]; inhibitor treatment, MEC cells): not changed

shRNA #1: shRNA lenti-viral construct targeting PDE4B, SEQ ID NO 1 (CCGGGCTTGAGTAAATCCTACAGTTCTCGAGAACTGTAGGATTTACTCAAGCTTTTTG)
cell growth (in words) (HSY cells [3]; HSY cells, PDE4B knock-down): slight growth reduction | growth inhibition (H292 cells [4]): 74% | growth inhibition (H3118 cells [5]): 83%

shRNA #2: shRNA lenti-viral construct targeting PDE4B, SEQ ID NO 2 (CCGGGCGCAGAGAGTCATTTCTCTACTCGAGTAGAGAAATGACTCTCTGCGCTTTTTG)
tumor growth in vivo (in words) (H3118 cells [6]; H3118 cells with PDE4B knock-down vs control cells, s.c., tumor volume every two days): significantly slower | repression of PDE4B expression in tumor biopsies (H3118 cells [6]; RT-qPCR, compared to controls): 71% | average tumor weight, less than controls (H3118 cells [6]; day 30 at sacrifice): 88% | cells arrested at G0/G1 phase (H292 cells [7]): 78% | cells arrested at G0/G1 phase (H3118 cells [8]): 79% | cell cycle arrest (in words) (HSY cells [9]): much less effect | apoptosis (in words) (H292 and H3118 cells [10]): significant apoptosis | apoptosis (in words) (HSY cells [11]): no significant effect | cell growth (in words) (HSY cells [3]; HSY cells, PDE4B knock-down): slight growth reduction | growth inhibition (H292 cells [4]): 74% | growth inhibition (H3118 cells [5]): 83%

shRNA #A: small hairpin RNA targeting the MAML2 moiety of CRTC1-MAML2, GTAATCAACCTAACACATA, SEQ ID NO 3
cell growth (in words) (H292 and H3118 cells [1]; [13]): significantly inhibited cell growth | PDE4B expression (in words) (PDE4B; H3118 and H292 cells): significantly inhibited PDE4B expression | PDE4B expression (in words) (PDE4B; fusion negative HSY cells): not | cell growth (in words) (HSY cells [3]; [14]): no significant effect

shRNA #D: small hairpin RNA targeting the MAML2 moiety of CRTC1-MAML2, GACAGAGCCTGGTAATGAT, SEQ ID NO 4
cell growth (in words) (H292 and H3118 cells [1]; [13]): significantly inhibited cell growth | PDE4B expression (in words) (PDE4B; H3118 and H292 cells): significantly inhibited PDE4B expression | PDE4B expression (in words) (PDE4B; fusion negative HSY cells): not | PDE4B expression, down-regulation (H3118 cells [12]; CRTC1-MAML2 depletion): 17 fold | HES2 expression, up-regulation (H3118 cells [12]; CRTC1-MAML2 knock-down vs luciferase knock-down): 7 fold | cell growth (in words) (HSY cells [3]; [14]): no significant effect

From patent US20140243396A1, “METHOD OF TREATING MUCOEPIDERMOID CARCINOMA” (DANA-FARBER CANCER INSTITUTE, INC., priority 2011, published 2014)
